Measurements published in ChEMBL document CHEMBL2040736, “Design of potent and selective hybrid inhibitors of the mitotic kinase Nek2: structure-activity relationship, structural biology, and cellular activity” (J Med Chem, 2012).
pIC50: −log10 of the molar value.

Legend:
[1] = target: T1, Serine/threonine-protein kinase Chk2 (Homo sapiens, UniProt O96017); experiment: Inhibition of CHK2 incubated for 30 mins prior to substrate addition study done at apparent ATP Km for enzyme
[2] = target: MAP kinase-activated protein kinase 2 (Homo sapiens) (UniProt P49137); experiment: Inhibition of MAPKAPK2 at 1 uM incubated for 30 mins prior to substrate addition study done at apparent ATP Km for enzyme
Sequence of MAP kinase-activated protein kinase 2 (Homo sapiens) (P49137 whole entry, looked up): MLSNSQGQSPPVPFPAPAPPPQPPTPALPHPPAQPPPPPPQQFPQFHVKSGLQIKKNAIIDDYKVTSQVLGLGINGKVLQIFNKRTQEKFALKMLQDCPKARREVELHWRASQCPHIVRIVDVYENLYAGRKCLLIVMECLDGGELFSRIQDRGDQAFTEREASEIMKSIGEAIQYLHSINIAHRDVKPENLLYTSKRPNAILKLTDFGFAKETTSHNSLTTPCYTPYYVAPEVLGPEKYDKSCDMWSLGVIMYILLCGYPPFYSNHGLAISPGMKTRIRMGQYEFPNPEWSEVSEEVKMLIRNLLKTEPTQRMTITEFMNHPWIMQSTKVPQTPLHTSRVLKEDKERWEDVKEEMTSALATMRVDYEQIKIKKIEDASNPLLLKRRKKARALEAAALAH

[3] = target: T1, Serine/threonine-protein kinase Chk2; settings: 1 uM
[4] = target: Ribosomal protein S6 kinase alpha-5 (Homo sapiens) (UniProt O75582); experiment: Inhibition of MSK1 at 1 uM incubated for 30 mins prior to substrate addition study done at apparent ATP Km for enzyme
[5] = target: Protein kinase C zeta type (Homo sapiens) (UniProt Q05513); experiment: Inhibition of PKCzeta at 1 uM incubated for 30 mins prior to substrate addition study done at apparent ATP Km for enzyme
[6] = target: RAC-beta serine/threonine-protein kinase (Homo sapiens) (UniProt P31751); experiment: Inhibition of AKT2 at 1 uM incubated for 30 mins prior to substrate addition study done at apparent ATP Km for enzyme
[7] = target: T2, Serine/threonine-protein kinase Nek2 (Homo sapiens, UniProt P51955)
T2 sequence (P51955 whole entry): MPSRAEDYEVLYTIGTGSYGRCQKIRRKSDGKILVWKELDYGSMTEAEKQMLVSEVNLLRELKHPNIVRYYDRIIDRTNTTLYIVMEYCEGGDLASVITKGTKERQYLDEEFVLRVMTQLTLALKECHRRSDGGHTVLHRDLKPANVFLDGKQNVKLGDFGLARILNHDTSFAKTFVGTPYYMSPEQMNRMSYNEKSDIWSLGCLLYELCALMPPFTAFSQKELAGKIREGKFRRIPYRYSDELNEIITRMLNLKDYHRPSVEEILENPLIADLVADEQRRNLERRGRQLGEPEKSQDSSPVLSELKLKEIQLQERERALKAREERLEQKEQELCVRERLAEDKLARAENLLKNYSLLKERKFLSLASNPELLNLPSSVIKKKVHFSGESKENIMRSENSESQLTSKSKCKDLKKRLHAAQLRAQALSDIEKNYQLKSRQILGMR
Description: Inhibition of Nek2-mediated C-Nap1 phosphorylation in human U2OS cells after 3 hrs by immunofluorescence microscopy

[8] = target: T2, Serine/threonine-protein kinase Nek2; remark: listed apart in the source
[9] = target: T3, Tyrosine-protein kinase ABL1 (Homo sapiens, UniProt P00519); experiment: Inhibition of ABL at 1 uM
T3 sequence (P00519 whole entry): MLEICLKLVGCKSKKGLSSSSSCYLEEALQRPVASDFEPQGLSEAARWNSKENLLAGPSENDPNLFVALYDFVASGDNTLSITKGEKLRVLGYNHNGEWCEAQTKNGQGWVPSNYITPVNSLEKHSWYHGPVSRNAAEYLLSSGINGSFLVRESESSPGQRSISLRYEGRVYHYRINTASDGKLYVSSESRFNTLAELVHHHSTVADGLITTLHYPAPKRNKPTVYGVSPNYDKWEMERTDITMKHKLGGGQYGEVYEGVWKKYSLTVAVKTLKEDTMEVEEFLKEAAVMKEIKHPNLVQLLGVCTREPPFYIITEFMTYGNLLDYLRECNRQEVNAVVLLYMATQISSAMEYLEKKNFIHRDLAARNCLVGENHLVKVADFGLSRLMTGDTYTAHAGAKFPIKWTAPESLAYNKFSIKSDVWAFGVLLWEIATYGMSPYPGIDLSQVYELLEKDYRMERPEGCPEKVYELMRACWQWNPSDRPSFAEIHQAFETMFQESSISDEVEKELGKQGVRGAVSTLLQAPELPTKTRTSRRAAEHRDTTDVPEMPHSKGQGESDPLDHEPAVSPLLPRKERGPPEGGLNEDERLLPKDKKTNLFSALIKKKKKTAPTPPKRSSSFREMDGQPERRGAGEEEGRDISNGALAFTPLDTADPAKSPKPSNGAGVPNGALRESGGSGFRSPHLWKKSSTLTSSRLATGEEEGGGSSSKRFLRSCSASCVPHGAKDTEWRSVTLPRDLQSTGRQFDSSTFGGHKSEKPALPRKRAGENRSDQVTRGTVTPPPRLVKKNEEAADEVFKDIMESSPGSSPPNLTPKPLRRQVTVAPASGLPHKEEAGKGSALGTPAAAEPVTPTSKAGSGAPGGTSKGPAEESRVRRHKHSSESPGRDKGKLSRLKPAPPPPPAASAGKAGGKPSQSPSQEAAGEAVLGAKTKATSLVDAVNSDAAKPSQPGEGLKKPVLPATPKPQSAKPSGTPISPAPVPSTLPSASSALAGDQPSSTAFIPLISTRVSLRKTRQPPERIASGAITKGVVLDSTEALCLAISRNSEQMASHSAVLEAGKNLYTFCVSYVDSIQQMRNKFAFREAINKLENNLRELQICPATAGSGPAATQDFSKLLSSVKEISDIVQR

HeLa = experiment: Growth inhibition of human HeLa cells after 92 hrs by CellTiter-Blue assay; assay type: functional
[10] = target: Aurora kinase A (Homo sapiens) (UniProt O14965); settings: 1 uM
[11] = target: Tyrosine-protein kinase Fyn (Homo sapiens, UniProt P06241); experiment: Inhibition of FYN incubated for 30 mins prior to substrate addition study done at apparent ATP Km for enzyme
Sequence of Tyrosine-protein kinase Fyn (P06241 whole entry): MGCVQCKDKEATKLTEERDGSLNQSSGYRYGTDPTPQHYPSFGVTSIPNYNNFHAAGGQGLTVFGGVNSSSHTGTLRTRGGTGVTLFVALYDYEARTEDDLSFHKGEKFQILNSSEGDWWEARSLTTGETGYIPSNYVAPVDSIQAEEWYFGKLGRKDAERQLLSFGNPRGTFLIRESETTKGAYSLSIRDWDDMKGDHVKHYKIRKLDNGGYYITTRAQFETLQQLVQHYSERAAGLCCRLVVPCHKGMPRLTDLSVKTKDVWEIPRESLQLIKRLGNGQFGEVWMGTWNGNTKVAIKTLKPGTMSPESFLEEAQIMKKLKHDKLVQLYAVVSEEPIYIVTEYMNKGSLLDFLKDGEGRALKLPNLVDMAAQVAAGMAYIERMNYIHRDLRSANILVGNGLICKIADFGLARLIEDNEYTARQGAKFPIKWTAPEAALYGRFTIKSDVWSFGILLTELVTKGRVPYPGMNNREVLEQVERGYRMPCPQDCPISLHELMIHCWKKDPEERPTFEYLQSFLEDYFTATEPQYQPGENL

[12] = target: Insulin receptor (Homo sapiens) (UniProt P06213); experiment: Inhibition of INSR at 1 uM incubated for 30 mins prior to substrate addition study done at apparent ATP Km for enzyme
Sequence of Insulin receptor (Homo sapiens) (P06213 28-758 limits assumed): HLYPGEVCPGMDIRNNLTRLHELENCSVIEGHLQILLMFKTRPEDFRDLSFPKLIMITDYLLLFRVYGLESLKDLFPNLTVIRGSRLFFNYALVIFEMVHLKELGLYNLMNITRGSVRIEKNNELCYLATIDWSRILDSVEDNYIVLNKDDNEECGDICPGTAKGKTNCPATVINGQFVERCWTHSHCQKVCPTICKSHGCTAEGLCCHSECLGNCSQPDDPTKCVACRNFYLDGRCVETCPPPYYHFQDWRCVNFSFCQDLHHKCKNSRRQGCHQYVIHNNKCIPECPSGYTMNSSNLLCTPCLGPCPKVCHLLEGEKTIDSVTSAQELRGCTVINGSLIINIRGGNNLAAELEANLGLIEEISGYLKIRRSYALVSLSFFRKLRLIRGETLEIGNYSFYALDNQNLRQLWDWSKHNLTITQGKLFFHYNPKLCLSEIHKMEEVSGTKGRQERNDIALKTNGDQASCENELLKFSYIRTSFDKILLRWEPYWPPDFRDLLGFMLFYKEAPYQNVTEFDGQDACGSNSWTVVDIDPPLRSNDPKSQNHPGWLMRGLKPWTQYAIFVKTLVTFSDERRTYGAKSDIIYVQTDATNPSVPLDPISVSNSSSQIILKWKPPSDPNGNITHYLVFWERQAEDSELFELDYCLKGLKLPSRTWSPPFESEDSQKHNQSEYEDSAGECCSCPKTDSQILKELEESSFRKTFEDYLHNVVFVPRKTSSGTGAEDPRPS
Sequence of Insulin receptor (Homo sapiens) (P06213 763-1382 limits assumed): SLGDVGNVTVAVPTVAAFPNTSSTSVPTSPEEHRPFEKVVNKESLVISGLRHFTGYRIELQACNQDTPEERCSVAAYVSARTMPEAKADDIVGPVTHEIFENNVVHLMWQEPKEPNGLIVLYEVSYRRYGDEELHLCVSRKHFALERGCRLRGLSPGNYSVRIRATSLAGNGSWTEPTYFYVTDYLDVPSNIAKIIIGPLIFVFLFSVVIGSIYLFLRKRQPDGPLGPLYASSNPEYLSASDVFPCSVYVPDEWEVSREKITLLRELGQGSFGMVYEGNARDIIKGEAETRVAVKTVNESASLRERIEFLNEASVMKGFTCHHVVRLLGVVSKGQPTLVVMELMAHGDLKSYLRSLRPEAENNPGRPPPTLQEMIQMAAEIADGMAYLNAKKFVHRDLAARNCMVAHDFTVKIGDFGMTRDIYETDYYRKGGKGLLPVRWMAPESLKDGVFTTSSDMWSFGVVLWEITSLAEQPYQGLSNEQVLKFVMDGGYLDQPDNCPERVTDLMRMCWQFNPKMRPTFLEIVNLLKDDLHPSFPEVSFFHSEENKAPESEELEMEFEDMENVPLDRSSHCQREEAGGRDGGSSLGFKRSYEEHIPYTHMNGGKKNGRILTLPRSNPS

[13] = target: Mitogen-activated protein kinase 14 (Homo sapiens) (UniProt Q16539); experiment: Inhibition of p38alpha at 1 uM incubated for 30 mins prior to substrate addition study done at apparent ATP Km for enzyme
MCF7 = experiment: Growth inhibition of human MCF7 cells after 92 hrs by CellTiter-Blue assay; assay type: functional; settings: MCF7, 92 h
[14] = target: RAC-alpha serine/threonine-protein kinase (Homo sapiens) (UniProt P31749); experiment: Inhibition of AKT1 at 1 uM incubated for 30 mins prior to substrate addition study done at apparent ATP Km for enzyme
[15] = Inhibition of PKA at 1 uM incubated for 30 mins prior to substrate addition study done at apparent ATP Km for enzyme
MDA-MB-231 = experiment: Growth inhibition of human MDA-MB-231 cells after 92 hrs by CellTiter-Blue assay; assay type: functional; settings: MDA-MB-231, 92 h
[16] = target: Glycogen synthase kinase-3 beta (Homo sapiens, UniProt P49841); experiment: Inhibition of GSK3beta at 1 uM incubated for 30 mins prior to substrate addition study done at apparent ATP Km for enzyme
Sequence of Glycogen synthase kinase-3 beta (P49841 whole entry, looked up): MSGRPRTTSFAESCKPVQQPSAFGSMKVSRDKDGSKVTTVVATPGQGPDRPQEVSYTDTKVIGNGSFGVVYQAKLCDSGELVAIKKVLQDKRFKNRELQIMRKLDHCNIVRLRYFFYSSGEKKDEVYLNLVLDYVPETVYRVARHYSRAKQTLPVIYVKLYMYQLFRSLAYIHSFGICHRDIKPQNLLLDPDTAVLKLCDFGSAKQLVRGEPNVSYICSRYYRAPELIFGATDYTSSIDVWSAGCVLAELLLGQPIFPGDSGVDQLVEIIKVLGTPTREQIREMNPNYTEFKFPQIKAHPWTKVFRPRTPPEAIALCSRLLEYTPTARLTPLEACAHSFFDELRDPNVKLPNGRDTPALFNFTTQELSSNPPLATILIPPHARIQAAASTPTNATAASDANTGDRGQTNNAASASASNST

[17] = target: Mitogen-activated protein kinase 1 (Homo sapiens) (UniProt P28482); experiment: Inhibition of Erk2 at 1 uM incubated for 30 mins prior to substrate addition study done at apparent ATP Km for enzyme
[18] = target: Tyrosine-protein kinase Lyn (Homo sapiens, UniProt P07948); experiment: Inhibition of LYN at 1 uM incubated for 30 mins prior to substrate addition study done at apparent ATP Km for enzyme
[19] = target: Mitogen-activated protein kinase 3 (Homo sapiens) (UniProt P27361); experiment: Inhibition of Erk1 at 1 uM incubated for 30 mins prior to substrate addition study done at apparent ATP Km for enzyme
Sequence of Mitogen-activated protein kinase 3 (Homo sapiens) (P27361 whole entry): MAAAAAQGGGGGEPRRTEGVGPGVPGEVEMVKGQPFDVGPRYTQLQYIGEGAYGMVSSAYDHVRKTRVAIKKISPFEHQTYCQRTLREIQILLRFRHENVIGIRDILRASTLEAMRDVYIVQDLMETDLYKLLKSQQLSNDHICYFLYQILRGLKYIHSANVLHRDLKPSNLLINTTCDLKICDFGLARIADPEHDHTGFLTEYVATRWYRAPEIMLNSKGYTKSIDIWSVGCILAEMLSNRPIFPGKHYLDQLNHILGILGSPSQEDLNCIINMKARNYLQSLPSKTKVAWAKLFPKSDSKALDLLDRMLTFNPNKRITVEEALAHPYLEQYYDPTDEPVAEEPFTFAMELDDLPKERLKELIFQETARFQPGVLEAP

[20] = target: Serine/threonine-protein kinase D2 (Homo sapiens, UniProt Q9BZL6); experiment: Inhibition of PKD2 incubated for 30 mins prior to substrate addition study done at apparent ATP Km for enzyme
[21] = target: MAP kinase-activated protein kinase 5 (Homo sapiens) (UniProt Q8IW41); experiment: Inhibition of PRAK at 1 uM incubated for 30 mins prior to substrate addition study done at apparent ATP Km for enzyme
Aurora kinase A = target: T4, Aurora kinase A (Homo sapiens, UniProt O14965); experiment: Inhibition of Aurora A kinase by caliper method
T4 sequence (O14965 whole entry): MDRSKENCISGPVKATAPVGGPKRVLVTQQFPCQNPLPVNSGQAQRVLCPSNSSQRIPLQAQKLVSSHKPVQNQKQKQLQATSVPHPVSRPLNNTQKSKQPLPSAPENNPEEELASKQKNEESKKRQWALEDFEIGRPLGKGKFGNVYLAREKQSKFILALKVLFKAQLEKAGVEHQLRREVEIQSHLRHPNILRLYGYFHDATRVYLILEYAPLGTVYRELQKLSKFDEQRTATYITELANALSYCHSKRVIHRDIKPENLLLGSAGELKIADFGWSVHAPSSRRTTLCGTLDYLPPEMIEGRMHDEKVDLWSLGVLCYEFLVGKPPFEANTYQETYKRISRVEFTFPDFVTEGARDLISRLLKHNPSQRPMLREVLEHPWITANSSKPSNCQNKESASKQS

[22] = target: Tyrosine-protein kinase Lck (Homo sapiens, UniProt P06239); experiment: Inhibition of LCK incubated for 30 mins prior to substrate addition study done at apparent ATP Km for enzyme
[23] = target: T3, Tyrosine-protein kinase ABL1; experiment: Inhibition of ABL at 1 uM incubated for 30 mins prior to substrate addition study done at apparent ATP Km for enzyme
[24] = target: Serine/threonine-protein kinase PLK1 (Homo sapiens, UniProt P53350); experiment: Inhibition of Plk1 using 5-FAMRRRAGALMDASFEEQ- CONH2 as substrate after 75 mins by caliper method
U2OS = experiment: Growth inhibition of human U2OS cells after 92 hrs by CellTiter-Blue assay; assay type: functional

T1 sequence (O96017 whole entry): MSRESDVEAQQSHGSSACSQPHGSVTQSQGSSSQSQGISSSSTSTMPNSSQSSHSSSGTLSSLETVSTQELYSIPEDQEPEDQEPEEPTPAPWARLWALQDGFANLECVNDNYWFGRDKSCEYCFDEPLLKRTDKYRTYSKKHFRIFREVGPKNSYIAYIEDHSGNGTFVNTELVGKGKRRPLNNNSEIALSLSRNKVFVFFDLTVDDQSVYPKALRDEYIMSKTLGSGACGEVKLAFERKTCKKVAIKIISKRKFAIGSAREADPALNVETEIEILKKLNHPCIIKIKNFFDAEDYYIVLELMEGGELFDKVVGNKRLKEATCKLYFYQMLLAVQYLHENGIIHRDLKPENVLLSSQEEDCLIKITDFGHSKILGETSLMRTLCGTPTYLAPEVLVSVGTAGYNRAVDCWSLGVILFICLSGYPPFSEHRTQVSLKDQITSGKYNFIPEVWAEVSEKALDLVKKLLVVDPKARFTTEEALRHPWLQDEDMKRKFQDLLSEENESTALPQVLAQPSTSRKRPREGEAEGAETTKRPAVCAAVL

C[C@H](/C=C\C(F)(F)F)Oc1cc(-c2cc(-c3cc(CN(C)C)cs3)cnc2N)ccc1C(N)=O
pIC50 [1]: 5.70 | inhibition [2]: 6% | inhibition [3]: 32% | inhibition [4]: 25% | inhibition [5]: 12% | inhibition [6]: 0% | pIC50 [7]: 6.10 | pIC50 [8]: 7.66 | pIC50 [9]: 5.95 | GI50 (HeLa): 590 nM | inhibition [10]: 19% | pIC50 [11]: 6.12 | inhibition [12]: 0% | inhibition [13]: 0% | GI50 (MCF7): 2170 nM | inhibition [14]: 3% | inhibition [15]: 12% | GI50 (MDA-MB-231): 4160 nM | inhibition [16]: 93% | inhibition [17]: 11% | inhibition [18]: 43% | inhibition [19]: 2% | pIC50 [20]: 6.48 | inhibition [21]: 7% | pIC50 (Aurora kinase A): 5.31 | pIC50 [22]: 6.96 | inhibition [23]: 46% | pIC50 [24]: 5.24 | GI50 (U2OS): 1820 nM
